According to PMC7713230, “Upconversion NIR-II fluorophores for mitochondria-targeted cancer imaging and photothermal therapy” (Nature Communications, 2020):

How the values were obtained:
143B cells [1] = assay: Detection of ATP level; type: cell-based, human; conditions: CCCP 40 μM 6 h, positive control, control = 100%
Experimental: (§1) 20 mm confocal dishes, and cultured for 12 h at a density of 1×10^5 cells/well. Then, 200 µL of H4-PEG-PT (64 µM) was introduced into the confocal dishes. After 7 h incubation, 143B and HepG2 cells were washed twice with PBS, stained with Hoechst staining kit in PBS for 20 min. The tumor cell samples were immediately examined by an inverted Zeiss Axiovert 200 fluorescence microscopy at a 20× objective, using a high-pressure mercury lamp as an excitation source.
(§2) 143B cells (6×103) were incubated in 96 wells plate at 37 °C for 12 h. Then, cells were treated with 64 μM H4-PEG-PT or 40 μM CCCP for 6 h and irradiated by an 808 nm laser for 3 min each well. After irradiation, ATP level was immediately determined by an ATP determination kit (cat. no. A22066) from Thermo Fisher Scientific with 1% Triton X 100 water solution for cell permeabilization. After 10 min incubation, the luminescence intensity was then detected using a microplate reader (TECAN, Infinite M200 […]
(§3) Detection of mitochondrial membrane potential by JC-1 assay
(§4) 143B cells (6×103) were incubated in 96 wells plate for 12 h. Then, cells were treated with H4-PEG-PT (64 μM), or CCCP (40 μM) for 6 h and irradiated by an 808 nm laser for 3 min. […] Fluorescence intensity was then detected using a microplate reader (TECAN, Infinite M200 Pro) with excitation at 485 nm (green) or 535 nm (red) and emissions at 535 nm (green) or 595 nm (red). […]

143B cells [2] = assay: Mitochondrial membrane potential by JC-1 assay; type: cell-based, human; conditions: CCCP 40 μM 6 h, positive control, control = 100%
Experimental: as §1, §2, §3, §4

[3] = tested on: mitochondria of 143B cells; assay: Mitochondrial colocalization by confocal laser scanning microscopy; type: cell-based, human; conditions: concentrations lower than 10 nM, same experimental conditions
Experimental: […] Scale bar: 10 μm. Results in (a–f) are representative of three independent experiments.
143B (50,000 cells) were seeded in round discs and incubated in 1 mL of DMEM medium (pH = 7.4) containing 10% FBS for 24 h. After replacing the medium with 1 mL of fresh medium, 3k-PEG, H4-PEG, and H4-PEG-PT were added, respectively, and the cells were allowed to incubate for 6 h. After removing the medium and subsequently washing with PBS buffer (pH = 7.4) thrice, mitotracker green was added to stain the mitochondria for 30 min. The cells were viewed under a FV1200 CLSM (Olympus) and Leica SPE.

[4] = tested on: osteosarcoma cell lines (e.g., 143B cells); conditions: cited from earlier work
Text: Osteosarcoma is the third most common malignant tumor and accounts for more than 60% of all malignant bone tumors in children and adolescents. Surgical excision of all primary and metastatic tumors remains the essential strategy behind osteosarcoma treatment. However, current diagnostic tools allow detection of only 8–15% of bone or lung metastatic patients[52],[53]. Thus, it is urgent to develop new theranostic strategies for early diagnosis, therapy, and monitoring responses to osteosarcoma therapies[54],[55]. The oligopeptide PPSHTPT (PT) was first designed to mimic the properties of th ...

Q: Which “cellular ATP level” value (143B cells [1]) does the source give for `N#CC(C#N)=NNc1cccc(Cl)c1` [CCCP, carbonyl cyanide m-chlorophenylhydrazone] here?
A: ~ 78%

Q: And the “ratio of J-aggregates to monomers” value (143B cells [2])?
A: 63%

Q: For `CN1/C(=C/C=C/c2n(Cc3ccc(CCl)cc3)c3cc(Cl)c(Cl)cc3[n+]2Cc2ccc(CCl)cc2)Oc2ccccc21` [Mitotracker Green], which “fluorescent intensity in mitochondrial imaging” value [3] is on record?
A: too weak to be detected

Q: For “PPSHTPT [osteosarcoma-targeting oligopeptide PPSHTPT, mimics osteocalcin]”, which “affinity and specificity for osteosarcoma cell lines” value [4] is on record?
A: high affinity and specificity
